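Test compounds were applied to cells in 96-well plates for 48 hours at 5 doses. At the TGI there is no net growth.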
What was measured:
Experiment in all cases: inhibition of tumour cell growth, NCI panel, 48 h
[1] = tested on: 786-0 renal
[2] = tested on: A498 renal
[3] = tested on: A549 NSCLC
[4] = tested on: ACHN renal
[5] = tested on: BT-549 breast
[6] = tested on: CAKI-1 renal
[7] = tested on: CCRF-CEM leukemia
[8] = tested on: COLO 205 colon
[9] = tested on: DU-145 prostate
[10] = tested on: EKVX NSCLC
[11] = tested on: HCC-2998 colon
[12] = tested on: HCT-116 colon
[13] = tested on: HCT-15 colon
[14] = tested on: HL-60(TB) leukemia
[15] = tested on: HOP-62 NSCLC
[16] = tested on: HOP-92 NSCLC
[17] = tested on: HS 578T breast
[18] = tested on: HT29 colon
[19] = tested on: IGROV1 ovarian
[20] = tested on: K-562 leukemia
[21] = tested on: KM12 colon
[22] = tested on: LOX IMVI melanoma
[23] = tested on: M14 melanoma
[24] = tested on: MALME-3M melanoma
[25] = tested on: MCF7 breast
[26] = tested on: MDA-MB-231 breast
[27] = tested on: MDA-MB-435
[28] = tested on: MDA-N
[29] = tested on: MOLT-4 leukemia
[30] = tested on: NCI-H226 lung
[31] = tested on: NCI-H23 lung
[32] = tested on: NCI-H460 lung
[33] = tested on: NCI-H522 lung
[34] = tested on: NCI/ADR-RES ovarian
[35] = tested on: OVCAR-3 ovarian
[36] = tested on: OVCAR-4 ovarian
[37] = tested on: OVCAR-5 ovarian
[38] = tested on: OVCAR-8 ovarian
[39] = tested on: PC-3 prostate
[40] = tested on: RPMI-8226 leukemia
[41] = tested on: RXF 393 renal
[42] = tested on: SF-268 CNS
[43] = tested on: SF-295 CNS
[44] = tested on: SF-539 CNS
[45] = tested on: SK-MEL-2 melanoma
[46] = tested on: SK-MEL-28 melanoma
[47] = tested on: SK-MEL-5 melanoma
[48] = tested on: SK-OV-3 ovarian
[49] = tested on: SN12C renal
[50] = tested on: SNB-19 CNS
[51] = tested on: SNB-75 CNS
[52] = tested on: SR leukemia
[53] = tested on: SW-620 colon
[54] = tested on: T-47D breast
[55] = tested on: TK-10 renal
[56] = tested on: U251 CNS
[57] = tested on: UACC-257 melanoma
[58] = tested on: UACC-62 melanoma
[59] = tested on: UO-31 renal
[60] = tested on: DLD-1 colon
[61] = tested on: DMS 114 small cell lung
[62] = tested on: DMS 273 small cell lung
[63] = tested on: HOP-18 NSCLC
[64] = tested on: KM20L2 colon
[65] = tested on: LXFL 529 NSCLC
[66] = tested on: M19-MEL melanoma

Measured: TGI

N#Cc1c(N2CCCC2)ncn(Cc2ccccc2)c1=S
> 95.2 µM: [51]
99.3 µM: [16]
> 100 µM: [1] | [2] | [3] | [4] | [5] | [6] | [7] | [8] | [9] | [10] | [11] | [12] | [13] | [14] | [15] | [17] | [18] | [19] | [20] | [21] | [22] | [23] | [24] | [25] | [26] | [27] | [28] | [29] | [30] | [31] | [32] | [33] | [34] | [35] | [36] | [37] | [38] | [39] | [40] | [41] | [42] | [43] | [44] | [45] | [46] | [47] | [48] | [49] | [50] | [52] | [53] | [54] | [55] | [56] | [57] | [58] | [59]

COc1ccc(C[C@H](N)C(=O)N2C[C@H](CO)C[C@H](n3ccc(=O)[nH]c3=O)C2)cc1
> 100 µM: [3] | [4] | [6] | [7] | [8] | [60] | [61] | [62] | [10] | [11] | [12] | [13] | [14] | [63] | [15] | [16] | [18] | [19] | [20] | [21] | [64] | [22] | [65] | [23] | [66] | [24] | [29] | [30] | [31] | [32] | [33] | [35] | [36] | [37] | [38] | [40] | [41] | [42] | [44] | [45] | [46] | [47] | [48] | [49] | [50] | [52] | [53] | [55] | [56] | [58] | [59]

From PubChem BioAssay (NCI)
